Laboratory results published in patent US5747506A, “Isoquinoline compounds, compositions containing them and their pharmaceutical uses” (Novartis AG, priority 1993, dated 1998).
Where two headings read alike, the source gives them in different places.

How the values were obtained:
[1] = test system: PDE IV; experiment: inhibition of PDE IV added to plasma after administration to conscious dogs; assay type: in vivo; settings: up to 0.3 mg/kg i.v. or 0.6 mg/kg p.o., hydrogen-oxalate salt
[2] = test system: human eosinophils; experiment: TEST B: Inhibition of Eosinophil Activation by fMLP (oxidative burst, chemiluminescence); assay type: cell-based; settings: fMLP 1 μM, hydrogen-oxalate salt
Protocol: TEST B: Inhibition of Eosinophil Activation by formyl-MetLeuPhe (fMLP)
Purified human eosinophils (10^4 /well in 0.2 ml HBSS) are stimulated with fMLP (1 μM) in the presence of lucigenin (25 μM). Inhibition of the oxidative burst (measured as changes in chemiluminescence) is determined from dose response curves using the logistic equation.

[3] = test system: bacterial endotoxin (LPS) induced airways obstruction and lethality; experiment: TEST E: Bacterial Endotoxin [LPS] Induced Lethality in the Guinea Pig; assay type: in vivo; settings: 100/μg/kg/min.; hydrogen-oxalate salt
Protocol: TEST E: Bacterial Endotoxin [LPS] Induced Lethality in the Guinea Pig
Guinea-pigs are anesthetized by intraperitoneal injection of sodium phenobarbitone (100 mg/kg.) supplemented with sodium pentobarbitone (30 mg/kg) and paralyzed by intramuscular injection of gallamine (10 mg/kg). Animals are ventilated (8 ml/kg, 1 Hz) with a mixture of air and oxygen (40:60, v/v) via a tracheal cannula. Ventilation is monitored at the trachea by a pneumotachograph connected to a differential pressure transducer. […] Blood pressure and heart rate are recorded from the carotid artery using a pressure transducer and a cannula is introduced into the right jugular vein to allow intravenous infusion of test substance min prior to and concomitantly with infusion of LPS at a constant rate (3.0 ml/hr to give 10 mg/kg/hr) from an infusion pump. The left jugular vein is cannulated for administration of (±) propranolol (1 mg/kg) injected as an intravenous bolus. […] Experimental data is stored continuously and, on termination of an experiment, experimental traces or processed data are plotted.
Infusion of [±propanolol] ensures consistent susceptibility to LPS. In anesthetized animals pre-treated with [±] propanalol, infusion of LPS in the above model induces progressive airway obstruction. Death consequential to endotoxin shock usually occurs within ca. 1 hr of terminating LPS infusion.

[4] = test system: cardiovascular effects; experiment: Doppler aortic flow test in the rabbit; assay type: in vivo; settings: hydrogen-oxalate salt
Source text: Thus in a series of experiments using the Doppler aortic flow test in the rabbit [J. Pharmacol. Meth.

[5] = hemodynamics, plasma glucose and tolerability in conscious dogs; assay type: in vivo, dog; settings: hydrogen-oxalate salt
[6] = test system: methacholine induced bronchoconstriction; experiment: TEST J: Suppression of Methacholine (MeCH) Induced Broncho-Constriction in the Rhesus Monkey; assay type: in vivo; settings: hydrogen-oxalate salt
Protocol: TEST J: Suppression of Methacholine (MeCH) Induced Broncho-Constriction in the Rhesus Monkey
Male rhesus monkeys (body weight 10.3-13.2 kg) are anesthetized with ketamine (20 mg/kg i.m., initial) and maintained with thiopental (8 mg/kg/h i.v.) via an indwelling catheter in the left saphenous vein, throughout the experimental procedure. Animals are allowed to breathe spontaneously, and are placed in the left lateral incumbent position. The larynx, eppiglottis and pharynx are anesthetized (topical xylocaine) allowing introduction and placement of a cuffed 4.5 mm pediatric endotracheal tube.
MeCH is administered as an aerosol (saline vehicle: aerosol generated by a nebulizer operated under an airflow of 6 l/min, mean particle size of 3.5 μm) with a 2 minute exposure, tidal breathing. All tests employ a 0.6 mg/ml solution or 2.5 mg/ml solution in the case of poor MeCH responders. MeCH bronchoconstrictor tests are spaced 30 min apart, with administration of test substance (in a lactose vehicle suspension, 1 mg/ml, 1 ml administered under bronchoscopic control, 1 cm above the carina) 15 min prior to MeCH challenge.
Test substance is administered in a cumulative manner. Bronchodilator activity is estimated as the % inhibition of bronchoconstrictor response to MeCH on resistance.

[7] = test system: SRS-A induced bronchoconstriction; experiment: TEST H experiment 2: Suppression of SRS-A Induced Bronchoconstriction (tracheal instillation, inhaled ovalbumin); assay type: in vivo, guinea pig (Dunkin-Hartley); settings: Cavia porcellus, i.t., hydrogen-oxalate salt
Protocol: TEST H: Suppression of SRS-A Induced Bronchoconstriction
(§1) Guinea pigs (Dunkin-Hartley, male, 400-600 g) are anesthethized with phenobarbital (100 mg/kg i.p.) and pentobarbital (30 mg/kg i.p.) and paralyzed with gallamine (100 mg/kg i.m.) Animals are ventilated via a tracheal cannula (8 ml/kg, 1 Hz) with a mixture of air and oxygen (45:55 v/v). Blood pressure and heart rate are recorded at the carotid artery. Ventilation is monitored by a Fleisch flow transducer in line with the inspiratory circuit. When making measurements of flow, coincident pressure changes in the thorax are monitored directly via an intrathoracic trochar, permitting display of differential pressure relative to the trachea. From this information in relation to flow and differential pressure, resistance [R1 ] and compliance [Cdyn ] are calculated using a digital respiratory analyzer for each respiratory cycle.
Test animals are passively sensitized 24 hrs. prior to testing by administration of homologous anti-ovalbumin antiserum (1 ml i.v.). […] Allergen challenge is achieved by administration of ovalbumin (OA) and the resultant bronchoconstrictor response is used as a functional read-out of SRS-A activity.
2) In the second, animals are challenged with OA (1.0 or 1.8 mg/ml inhaled over 60 breaths) and the effect of test compound, administered at varying dosage directly into the lung by tracheal instillation, is measured.

[8] = test system: TNFα secretion, THP-1 cells; experiment: TEST C: Inhibition of TNFα Secretion (THP-1 cells, γ-interferon/LPS); assay type: cell-based; settings: Homo sapiens, LPS, γ-interferon, 40 hours, hydrogen-oxalate salt
Protocol: TEST C: Inhibition of TNFα Secretion
900 μl THP-1 cells (0.5 10^6 cells together with 100 U γ-interferon/0.9 ml) are pipetted into 24 well culture plates and followed by 100 μl test substance. After 3 hours at 37° C. in 5% CO2 /95% air, 10 μl LPS 5 μg/ml is added and the incubation continued for a further 40 hours. Appropriate controls are also included. The media are then removed and clarified by centrifugation at 1000 g for 10 min. 1.0 ml digitonin 0.01% is added to the wells to lyse the cells which are loosened by scraping with a rubber policeman and left at 4° C. for 10 min. Lactate dehydrogenase measurements are then performed immediately and the samples stored at […] until the other determinations can be performed. The assays are: IL-1β (medium), TNF-α (medium), and DNA (lysates). IL-1β, and TNF-α assays are determined using commercially available ELISA kits.
The method of Kapuscinski et al Anal. Biochem. (83, 252-257 (1977) is used to assay DNA. 300 μl samples of cell lysate in 0.01% digitonin are mixed with 750 μl tris-HCl buffer pH 7.0 (containing 13.2 mM Na2 SO4), 300 μl H2 O and 150 μl DAPI (4',6-diamidino-2-phenylindole.2HCl) 2 μg/ml. The fluorescence is then measured at 372 nm (excitation) and 454 nm (emission) using a Perkin Elmer 3000 fluorimeter. The samples are read against a standard curve of calf thymus DNA (0.5 to 10 μg/ml) run at the same time. […]

[9] = test system: lymphocytes from the spleen of Balb/c and CBA mice; experiment: TEST L: Murine Mixed Lymphocyte Reaction; assay type: cell-based; settings: Mus musculus, 120 h, thymidine incorporation, 5 days, hydrogen-oxalate salt
Protocol: TEST L: Murine Mixed Lymphocyte Reaction
Ca. 0.5×10^6 lymphocytes from the spleen of female (8-10 weeks) Balb/c mice are incubated for 5 days in 0.2 ml cell growth medium with ca. 0.5×10^6 lymphocytes from the spleen of female (8-10 weeks) CBA mice. Test substance is added to the medium at various concentrations. Activity is assessed by ability to suppress proliferation associated DNA synthesis as determined by incorporation of radiolabelled thymidine.

[10] = stock solution of the hydrogen-oxalate salt; assay type: physicochemical; settings: 10% Tween in 80% abs. C2H5OH
Protocol: [All experiments described below are suitably done using the hydrogen-oxalate salt of the test compound, e.g. compound of example 1. In the case of the example 1 compound a stable 30 mM stock solution of the hydrogen-oxalate salt may be prepared with 10% Tween in 80% abs. C2 H5 OH. For pharmacological experiments it should be diluted at least 1:10,000.]

[11] = test system: human PDE IV (neutrophils); experiment: TEST A: Human PDE Isoenzyme Inhibition Assay, type IV; assay type: biochemical
Source text: C2 H5 OH. For pharmacological experiments it should be diluted at least 1:10,000.]
TEST A: Human PDE Isoenzyme Inhibition Assay
All isoenzyme preparations are derived from human sources. Type III and IV preparations are obtained taking advantage of the predominance of type III isoenzymes in platelets and of type IV isoenzymes in neutrophils applying the following techniques:
Neutrophils (type IV) and platelets (types II and III) are obtained from human blood and sonicated (Branson probe, 4×15 sec.). Human lung (types I and V) is obtained from patients undergoing surgery and homogenized using a Polytron homogenizer (two bursts of 30 sec).
Isoenzyme preparations: PDE III and IV (substrate cAMP 1 μM) preparations consist of low-speed supernates of the platelet and neutrophil homogenates, respectively.

[12] = test system: SRS-A; experiment: TEST D: Inhibition of SRS-A Production (ovalbumin challenge); assay type: in vivo, guinea-pig; settings: 10 mg/kg i.v. 1 minute prior to challenge
Protocol: TEST D: Inhibition of SRS-A Production Guinea-pigs are passively sensitized 24 hrs. prior to testing by i.v. administration of 1 ml homologous anti-ovalbumin antiserum. Prior to antigen challenge test animals are pre-treated with 0.32 mg/kg propanol i.v. (inhibition of endogenous catecholamines), 3.2 mg/kg, i.v. mepyramine (H1 receptor antagonism) and 3.2 mg/kg, i.v. indomethacin (inhibition of cyclo-oxygenase). Allergen challenge is effected by administration of 32 μg/kg, ovalbumin i.v. and the resultant constrictor response on airways resistance used as a functional read out of SRS-A activity. Separate test groups receive 10 mg/kg, i.v. FPL 55712 (an LTD4 receptor antagonist) 1 minute prior to challenge or test substance at varying dosage, i.v. by infusion, beginning 16 minutes prior to challenge.

[13] = test system: SRS-A induced bronchoconstriction; experiment: TEST H experiment 1: Suppression of SRS-A Induced Bronchoconstriction (i.v. infusion); assay type: in vivo, guinea pig (Dunkin-Hartley); settings: FPL 55712 10 mg/kg i.v.
Protocol: as §1, with “TEST H: Suppression of SRS-A Induced Bronchoconstriction Guinea” for “Guinea”, “cycle. Test animals are passively sensitized 24 hrs. prior to testing by administration of homologous anti-ovalbumin antiserum (1 ml i.v.). […] Allergen challenge is achieved by administration of ovalbumin (OA) and the resultant bronchoconstrictor response is used as a functional read-out of SRS-A activity. […]” for “cycle.”

[14] = up to 0.3 mg/kg i.v. or 0.6 mg/kg p.o.

With `CCc1cc2cc(OCCO)c(OC)cc2c(-c2cc(OC(C)C)cc(OC(C)C)c2)n1` [Example 1, 1-(3,5-diisopropoxyphenyl)-3-ethyl-6-(2-hydroxyethoxy)-7-methoxy-isoauinoline] the “inhibition of PDE IV added to plasma” value [1] was “substantial and long-lasting inhibition”, the IC50 [2] was 0.06 ± 0.03 µM and the “lethality (TEST E)” value [3] was “no animals dying”. The “protection (TEST E)” value [3] was “COMPLETE PROTECTION”, the “heart rate (rabbit)” value ([4]; of the order of 1 mg/kg) was “only slight decrease in heart rate” and the cardiovascular side effects ([4]; up to the order of 0.3 mg/kg) was “no cardiovascular side effects”. For the same molecule, the tolerability ([5]; all dosages) was “generally well tolerated”, the “change in heart rate” value [5, 14] was “no or only minimal change” and the “change in mean arterial pressure” value [5, 14] was “no or only minimal change”. For the same molecule, the “change in plasma glucose concentrations” value [5, 14] was “no or only minimal change”, the ED20 ([6]; Macaca mulatta, inhaled or nasal, MeCH aerosol, test substance in lactose suspension) was 0.0414 ± 0.0099 µg/kg and the “potency less than that of Albuterol (TEST J)” value ([6]; times less potent than Albuterol) was “ca. 3.5 ×”. For the same molecule, the ED50 ([7]; ovalbumin 1 mg/ml, read-out: ED50 vs. ovalbumin @1 mg/ml) was 5 µg/kg, the ED50 ([7]; ovalbumin 1.8 mg/ml, read-out: ED50 vs. ovalbumin @1.8 mg/ml) was 50 µg/kg and the IC50 [8] was ~0.1 µM. It also gave an IC50 [9] of 0.012 ± 0.009 µM, a stable stock solution [10] of 30 mM and an IC50 ([11]; TEST A, 1 μM [3H]-cyclic AMP substrate, hydrogen-oxalate salt) of 0.0029 ± 0.0012 µM. For the same molecule, the “fold greater activity in inhibiting the type IV isoenzyme than other isoenzyme preparations tested” value ([11]; type IV vs other isoenzyme preparations, hydrogen oxalate salt) was “at least 180 fold”.

In the case of `CCCc1c(OCC(O)COc2ccc3c(=O)cc(C(=O)O)oc3c2CCC)ccc(C(C)=O)c1O` (stereo not drawn) [FPL 55712], the “effect on bronchoconstriction (TEST D)” value [12] is reported as “abolition of bronchoconstriction” and the “bronchoconstrictor effect of OA (experiment 1)” value [13] is reported as “abolished”.
